Experiments:
Format in all cases: functional
[1] = tested on: Rattus norvegicus; test: Antiinflammatory activity in carrageenan induced rat at assessed as reduction in paw edema 50 mg/kg, po relative to control; set-up: scale not given: the % may be the effect or the level left
[2] = tested on: Rattus norvegicus; test: Anticonvulsant activity in ip dosed albino rat measured after 1 hrs
[3] = tested on: Tobacco mosaic virus; test: Antiviral activity against TMV at 500 microg/ml; details: dose 500 µg/ml

Row | SMILES | Activity [1] [%] | Activity [2] [%] | also measured
1 | COc1cc(/C=C/C(=O)NNCc2nc3ccccc3c(=O)n2-c2ccccc2Cl)ccc1O | 10.28 | – | –
2 | COc1ccc(/C=C/C(=O)NNCc2nc3ccc(Br)cc3c(=O)n2-c2ccccc2)cc1 | 10.28 | – | –
3 | COc1cc(C2CC(Nn3c(C)nc4ccc(Br)cc4c3=O)=NN2C(C)=O)ccc1O (stereo not given) | – | 50 | –
4 | CC(=O)N1N=C(Nn2c(C)nc3ccccc3c2=O)CC1c1ccc(N(C)C)cc1 (stereo not given) | – | 50 | –
5 | COc1ccc(/C=C/C(=O)NNCc2nc3ccc(Br)cc3c(=O)n2-c2cccc(Cl)c2)cc1 | 10.28 | – | –
6 | CC(C)c1ccc(/C=C/C(=O)NNCc2nc3ccc(Br)cc3c(=O)n2-c2cccc(Cl)c2)cc1 | 10.28 | – | –
7 | COc1ccc(/C=C/C(=O)NN2C(=O)CC2c2nc3ccc(Br)cc3c(=O)n2-c2cccc(Cl)c2)cc1 (stereo not given) | 10.28 | – | –
8 | COc1ccc(C2CC(Nn3c(C)nc4ccccc4c3=O)=NN2C(C)=O)cc1 (stereo not given) | – | 50 | –
9 | COc1cc(/C=C/C(=O)NN2C(=O)CC2c2nc3ccc(Br)cc3c(=O)n2-c2cccc(Cl)c2)ccc1O (stereo not given) | 10.28 | – | –
10 | Cc1nc2ccc(Br)cc2c(=O)n1/C=C/c1ccc(F)cc1 | – | – | Activity [3]: 54%
11 | COc1ccc(/C=C/C(=O)Nn2c(C)nc3ccccc3c2=O)cc1 | – | 50 | –
12 | CN(C)c1ccc(/C=C/C(=O)NNCc2nc3ccccc3c(=O)n2-c2ccccc2Cl)cc1 | 10.28 | – | –
13 | NNCc1nc2ccc(Br)cc2c(=O)n1-c1cccc(Cl)c1 | 10.28 | – | –
14 | COc1cc(C2CC(Nn3c(C)nc4ccccc4c3=O)=NO2)ccc1O (stereo not given) | – | 50 | –
15 | COc1ccccc1-n1c(CNNC(=O)/C=C/c2ccc(C(C)C)cc2)nc2ccccc2c1=O | 10.28 | – | –
16 | Cc1nc2ccccc2c(=O)n1NC1=NOC(c2ccccc2)C1 (stereo not given) | – | 50 | –
17 | COc1ccc(/C=C/C(=O)NN2C(=O)CC2c2nc3ccccc3c(=O)n2-c2ccccc2Cl)cc1 (stereo not given) | 10.28 | – | –
18 | COc1ccccc1-n1c(C2CC(=O)N2NC(=O)/C=C/c2ccc(C(C)C)cc2)nc2ccccc2c1=O (stereo not given) | 10.28 | – | –
19 | Cc1nc2ccccc2c(=O)n1NC(=O)/C=C/c1ccccc1 | – | 50 | –
20 | O=c1c2ccccc2nc(-c2ccncc2)n1/C=C/c1ccc(F)cc1 | – | – | Activity [3]: 54%
21 | Cc1nc2ccccc2c(=O)n1/C=C/c1cccc(Cl)c1Cl | – | – | Activity [3]: 54%
22 | CC(=O)NNCc1nc2ccccc2c(=O)n1-c1ccccc1Cl | 10.28 | – | –
23 | COc1cc(/C=C/C(=O)Nn2c(C)nc3ccc(Br)cc3c2=O)ccc1O | – | 50 | –
24 | O=C(/C=C/c1ccccc1)NN1C(=O)CC1c1nc2ccccc2c(=O)n1-c1ccccc1Cl (stereo not given) | 10.28 | – | –
25 | Cc1nc2ccccc2c(=O)n1NC(=O)/C=C/c1ccc(N(C)C)cc1 | – | 50 | –

Row | SMILES | Activity [1] [%] | Activity [2] [%] | also measured
26 | COc1ccccc1-n1c(CNN)nc2ccccc2c1=O | 10.28 | – | –
27 | Cc1nc2ccc(Br)cc2c(=O)n1/C=C/c1cc([N+](=O)[O-])ccc1Cl | – | – | Activity [3]: 54%
28 | COc1ccc(/C=C/n2c(C)nc3ccc(Br)cc3c2=O)c(OC)c1 | – | – | Activity [3]: 54%
29 | COc1cc(/C=C/C(=O)NNCc2nc3ccc(Br)cc3c(=O)n2-c2ccccc2)ccc1O | 10.28 | – | –
30 | O=c1c2ccccc2nc(-c2ccccc2)n1/C=C/c1cccc(C(F)(F)F)c1 | – | – | Activity [3]: 54%
31 | Cc1nc2ccccc2c(=O)n1NC1=NOC(c2ccc(O)cc2)C1 (stereo not given) | – | 50 | –
32 | CC(C)c1ccc(/C=C/C(=O)NN2C(=O)CC2c2nc3ccccc3c(=O)n2-c2ccccc2Cl)cc1 (stereo not given) | 10.28 | – | –
33 | O=C(/C=C/c1ccccc1)NNCc1nc2ccc(Br)cc2c(=O)n1-c1cccc(Cl)c1 | 10.28 | – | –
34 | O=C(/C=C/c1ccccc1)NNCc1nc2ccccc2c(=O)n1-c1ccccc1Cl | 10.28 | – | –
35 | COc1ccc(OC)c(/C=C/n2c(C)nc3ccc(Br)cc3c2=O)c1 | – | – | Activity [3]: 54%
36 | O=c1c2ccccc2nc(-c2ccccc2)n1/C=C/c1cccc(Cl)c1Cl | – | – | Activity [3]: 54%
37 | CC(=O)N1N=C(Nn2c(C)nc3ccccc3c2=O)CC1c1ccccc1 (stereo not given) | – | 50 | –
38 | Cc1nc2ccc(Br)cc2c(=O)n1/C=C/c1cccc(Cl)c1 | – | – | Activity [3]: 54%
39 | CC(=O)NNCc1nc2ccc(Br)cc2c(=O)n1-c1cccc(Cl)c1 | 10.28 | – | –
40 | CC(C)c1ccc(/C=C/C(=O)NN2C(=O)CC2c2nc3ccc(Br)cc3c(=O)n2-c2ccccc2)cc1 (stereo not given) | 10.28 | – | –
41 | COc1cc(/C=C/C(=O)NN2C(=O)CC2c2nc3ccccc3c(=O)n2-c2ccccc2Cl)ccc1O (stereo not given) | 10.28 | – | –
42 | Cc1nc2ccc(Br)cc2c(=O)n1/C=C/c1ccccc1C(F)(F)F | – | – | Activity [3]: 54%
43 | Cc1nc2ccc(Br)cc2c(=O)n1NC1=NOC(c2ccc(O)cc2)C1 (stereo not given) | – | 50 | –
44 | O=c1c2ccccc2nc(-c2ccccc2)n1/C=C/c1ccc(F)c(F)c1 | – | – | Activity [3]: 54%
45 | Cc1nc2ccc(Br)cc2c(=O)n1/C=C/c1cccc(C(F)(F)F)c1F | – | – | Activity [3]: 54%
46 | CC(=O)Nn1c(C)nc2ccccc2c1=O | – | 50 | –
47 | COc1ccc(/C=C/C(=O)NNCc2nc3ccccc3c(=O)n2-c2ccccc2Cl)cc1 | 10.28 | – | –
48 | O=c1c2ccccc2nc(-c2ccncc2)n1/C=C/c1ccccc1Cl | – | – | Activity [3]: 54%
49 | Cc1nc2ccc(Br)cc2c(=O)n1NC1=NOC(c2ccc(N(C)C)cc2)C1 (stereo not given) | – | 50 | –
50 | COc1ccc(C2CC(Nn3c(C)nc4ccc(Br)cc4c3=O)=NO2)cc1 (stereo not given) | – | 50 | –

From ChEMBL document CHEMBL5260833, “An overview of quinazolines: Pharmacological significance and recent developments” (Eur J Med Chem, 2018)
